ChEMBL document CHEMBL1671790, “A new β-carbonic anhydrase from Brucella suis, its cloning, characterization, and inhibition with sulfonamides and sulfamates, leading to impaired pathogen growth” (Bioorg Med Chem, 2011)

Assays:
O=C=O [1] = test: Ratio of kcat to Km for human carbonic anhydrase II
O=C=O [2] = test: Activity at human carbonic anhydrase II by spectrophotometry at pH 7.5
O=C=O [3] = details: Homo sapiens
O=C=O [4] = test: Ratio of kcat to Km for human carbonic anhydrase I
Helicobacter pylori [5] = test: Ratio of kcat to Km for Helicobacter pylori beta-carbonic anhydrase
Brucella suis [6] = system: Brucella suis
Brucella suis [7] = test: Ratio of kcat to Km for Brucella suis carbonic anhydrase II
Helicobacter pylori [8] = test: Activity at Helicobacter pylori beta-carbonic anhydrase by spectrophotometry at pH 8.3
Brucella suis [9] = test: Ratio of kcat to Km for Brucella suis carbonic anhydrase I
Brucella suis [10] = system: Brucella suis; remark: listed apart in the source

Sequence of Carbonic anhydrase 1 (Homo sapiens), P00915 (P00915 whole entry): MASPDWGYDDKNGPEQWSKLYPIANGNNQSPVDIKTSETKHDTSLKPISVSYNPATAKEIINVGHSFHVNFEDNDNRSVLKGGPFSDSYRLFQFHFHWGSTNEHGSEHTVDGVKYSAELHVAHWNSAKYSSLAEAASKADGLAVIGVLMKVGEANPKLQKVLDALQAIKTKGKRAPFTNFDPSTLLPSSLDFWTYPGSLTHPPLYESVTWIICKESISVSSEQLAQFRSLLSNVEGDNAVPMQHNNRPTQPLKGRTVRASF

Carbonic anhydrase 2 (Homo sapiens) (from UniProt P00918)
kcat/Km (O=C=O [1]): 1.5 ×10⁸ /M/s
kcat (O=C=O [2]): 1.4 ×10⁶ /s

Carbonic anhydrase 1 (Homo sapiens), P00915
kcat (O=C=O [3]): 2 ×10⁵ /s
kcat/Km (O=C=O [4]): 5 ×10⁷ /M/s

O=C=O
kcat/Km (Helicobacter pylori [5]): 4.8 ×10⁷ /M/s
kcat (Brucella suis [6]): 6.4 ×10⁵ /s
kcat/Km (Brucella suis [7]): 8.9 ×10⁷ /M/s
kcat (Helicobacter pylori [8]): 7.1 ×10⁵ /s
kcat/Km (Brucella suis [9]): 3.9 ×10⁷ /M/s
kcat (Brucella suis [10]): 1.1 ×10⁶ /s
